Measurements: paper PMC12668308, “A Novel Antimalarial Agent that Inhibits Protein Synthesis in Plasmodium falciparum” (Angewandte Chemie (International Ed. in English), 2025)

Experiments:
Dd2b2^pfmdr1 K1065N = format: cell-based, Plasmodium falciparum; conditions: Dd2b2^pfmdr1 K1065N vs Dd2b2^WT
Description: (§1) ^[a] 72-h [^3H] hypoxanthhine incorporation assay; Data is expressed as mean±s.d. The assay was performed in three independent biological experiments, each in biological duplicates
(§2) P. falciparum asexual blood stage parasites were cultured in human red blood cells (RBC, Blutspende SRK, Zurich) at a hematocrit of 5% in RPMI 1640 medium. The RPMI 1640 medium (ThermoFisher Scientific #51800−043) was supplemented with the following: 24 mM NaHCO3 (pH 7.3, Sigma-Aldrich #31437−500G-R), 25 mM Hepes (Sigma-Aldrich #H4034−500G), 0.36 mM hypoxanthine (Sigma-Aldrich # H9377−25G), 100 µg mL^-1 neomycin (Sigma-Aldrich #N6386−100G) and 0.5% Albumax II (Thermo Fisher #11021−045). Additionally, 2 mM choline chloride (279 mg/L, Sigma-Aldrich #C7527−100G) was added to the culture to block the induction of sexual commitment as described. ^[31^] The RPMI 1640 medium and components were dissolved in water (Milli-Q purified), stirred for at least 3 h, and then sterile filtered (0.22 μm pore size) with a bottle top filter (Corning # 431118). Parasite cultures were maintained in an atmosphere of 3% O2, 4% CO2, and 93% N2 in air-tight chambers at 37 °C. The [^3H]-hypoxanthine incorporation assay was used to test compound activity in the specific parasite lines as described.^[32^] Briefly, compounds were dissolved in DMSO (10 mM) and diluted in a hypoxanthine-free culture medium. A limiting dilution was performed over a 64-fold range (6-step twofold dilution) in a 96-well plate in duplicates. For every starting concentration, a limiting dilution was performed over a 64-fold range (6-step twofold dilution) in a 96-well plate in two biological duplicates. Parasites were added at 100 µL to each well containing the compound to obtain a final parasitemia of 0.3% and haematocrit of 1.25%. The plates were incubated for 48 h before 0.25 µCi of [^3H]-hypoxanthine was added per well for an additional 24 h. Parasites were harvested on a glass-fiber filter with a Microbeta FilterMate cell harvester (Perkin Elmer, Waltham, USA) and radioactivity was counted using a MicroBeta2 liquid scintillation counter (Perkin Elmer, Waltham, US). The results were recorded, processed by subtraction of the mean background signal obtained from the uninfected RBC controls and expressed as percentage of untreated controls. The fifty percent inhibitory concentration (IC50) was calculated by using nonlinear, four parameter (variable slope) curve fitting as described ^[33^] after importing into GraphPad Prism (version 8.3.0).

Cytotoxicity assay (MTT) = format: cell-based, human; conditions: human, HepG2 cells; HepG2, 48 h, MTT; mean ± s.d.
Description: (§3) HepG2 (2x10^4 cells per well) were seeded in 96-well flat-bottom culture plates in 100 µL of culture medium (DMEM containing 10% fetal calve serum and 1% penicillin-streptomycin). After 24 hours, the medium was replaced by fresh medium containing test compounds in a final DMSO concentration of 1%. […] Epirubicin and doxorubicin were used as positive controls in serial dilutions starting from 10 µM, and rifampicin was used as a negative control (at 100 µM). Cell viability was determined 48 h after treatment with compounds by adding 0.1 volumes of 3-(4,5-dimethylthiazol-2-yl)-2,5-diphenyltetrazolium bromide (MTT) solution (5 mg/mL sterile PBS) (Sigma, St. Louis, MO) to the wells. After incubating the cells for 30 min at 37 °C (atmosphere containing 5% CO2), medium was removed and MTT crystals were dissolved in 75 µL of a solution containing 10% SDS and 0.5% acetic acid in DMSO. The optical density (OD) of the samples was measured photometrically at 570 nm in a PHERAstar Omega plate reader (BMG labtech, Ortenberg, Germany). Percent viability was calculated by normalizing sample ODs to those of the DMSO controls. Each compound was tested in at least two independent experiments and CC50 values were determined using the nonlinear regression function of GraphPad Prism 10 (GraphPad Software, San Diego, CA, USA).

HepG2 = experiment: Cytotoxicity assay (MTT); format: cell-based, human
Description: as §3

[1] = test system: 60S ribosomal protein L7 (W7KAU4); experiment: iSPP profiling, P. falciparum lysate; format: binding, Plasmodium falciparum
Dd2b2^pfmdr1 G182S = format: cell-based, Plasmodium falciparum; conditions: Dd2b2^pfmdr1 G182S vs Dd2b2^WT
Description: as §1
as §2, with “The results were recorded, processed by subtraction of the mean background signal obtained from the uninfected RBC controls and expressed as percentage of untreated controls.” left out

CN1CCN(Cc2ccc(O)c(NC(=O)c3cccc(Oc4cc(C(F)(F)F)ccn4)c3)c2)CC1 [Compound 31, N-(2-hydroxy-5-((4-methylpiperazin-1-yl)methyl)phenyl)-3-((4-(trifluoromethyl)pyridin-2-yl)oxy)benzamide]
IC50 fold shift relative to parental clone (Dd2b2^pfmdr1 K1065N): 20.2
CC50 at 48 h (Cytotoxicity assay (MTT)): 37 µM
selectivity index (CC50/IC50) (HepG2; HepG2 CC50 / P. falciparum IC50): 9,487
inhibition at 100 µM (HepG2; Homo sapiens, HepG2, 100 µM, 48 h, MTT): 87 ± 5%
log2FC ([1]; 10 µM): 0.75
log2FC ([1]; 50 µM): 0.94
log2FC ([1]; 100 µM): 0.74
log2FC ([1]; 10^-2 µM): 0.69
log2FC ([1]; 10^-3 µM): 0.33
IC50 fold shift relative to parental clone (Dd2b2^pfmdr1 G182S): 35.7
